Structures are written as SMILES.

For 41 compounds, IC50 results are on record in patent US8841309B2, “Substituted pyrazines and their use in the treatment of disease” (Boehringer Ingelheim International GmbH, priority 2012, dated 2014).

This assay deals with T1, ENaC (Mus musculus, UniProt Q61180+Q9WU38+Q9WU39).
T1 construct: Mouse kidney M-1 cells were cultivated in DMEM containing 5% FCS and 5 μM dexamethasone; endogenous in cells; host or cells: mouse kidney M-1 cells
T1 sequence (Q61180 1-699): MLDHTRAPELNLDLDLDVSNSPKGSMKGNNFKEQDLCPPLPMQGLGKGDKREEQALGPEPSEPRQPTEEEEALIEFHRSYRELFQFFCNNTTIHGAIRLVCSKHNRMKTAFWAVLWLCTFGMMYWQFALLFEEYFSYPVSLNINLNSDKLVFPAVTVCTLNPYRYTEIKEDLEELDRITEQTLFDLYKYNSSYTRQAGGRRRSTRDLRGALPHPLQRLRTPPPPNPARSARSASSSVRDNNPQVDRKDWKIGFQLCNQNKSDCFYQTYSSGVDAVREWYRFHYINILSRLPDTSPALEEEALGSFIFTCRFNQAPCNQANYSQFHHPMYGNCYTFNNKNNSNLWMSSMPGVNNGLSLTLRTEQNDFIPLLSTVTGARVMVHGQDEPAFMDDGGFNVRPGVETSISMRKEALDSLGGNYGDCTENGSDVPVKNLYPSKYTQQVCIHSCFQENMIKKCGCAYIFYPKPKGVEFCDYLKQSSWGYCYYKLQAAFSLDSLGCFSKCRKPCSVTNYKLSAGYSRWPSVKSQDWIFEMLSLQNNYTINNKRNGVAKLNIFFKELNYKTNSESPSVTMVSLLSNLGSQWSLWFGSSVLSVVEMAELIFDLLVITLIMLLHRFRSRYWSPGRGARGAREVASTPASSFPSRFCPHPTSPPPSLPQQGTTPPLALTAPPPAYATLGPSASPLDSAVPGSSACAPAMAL
T1 sequence (Q9WU38 1-638): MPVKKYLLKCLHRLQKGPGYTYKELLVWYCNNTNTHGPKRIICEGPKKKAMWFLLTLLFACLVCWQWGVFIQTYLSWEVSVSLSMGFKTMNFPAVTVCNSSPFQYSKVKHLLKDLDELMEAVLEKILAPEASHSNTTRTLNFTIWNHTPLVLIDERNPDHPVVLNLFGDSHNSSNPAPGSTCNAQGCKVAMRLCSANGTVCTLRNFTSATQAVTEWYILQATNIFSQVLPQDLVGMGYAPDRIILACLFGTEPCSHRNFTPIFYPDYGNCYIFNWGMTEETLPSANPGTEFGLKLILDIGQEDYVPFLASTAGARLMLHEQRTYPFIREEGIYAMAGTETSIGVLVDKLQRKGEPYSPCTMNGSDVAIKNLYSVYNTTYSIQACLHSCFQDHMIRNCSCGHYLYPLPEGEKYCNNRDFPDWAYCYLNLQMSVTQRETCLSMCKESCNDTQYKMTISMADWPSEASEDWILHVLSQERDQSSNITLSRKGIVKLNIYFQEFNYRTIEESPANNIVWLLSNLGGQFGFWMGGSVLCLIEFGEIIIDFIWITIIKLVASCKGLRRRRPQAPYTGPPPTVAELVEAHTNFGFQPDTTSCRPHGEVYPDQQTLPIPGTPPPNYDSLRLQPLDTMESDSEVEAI
T1 sequence (Q9WU39 1-655): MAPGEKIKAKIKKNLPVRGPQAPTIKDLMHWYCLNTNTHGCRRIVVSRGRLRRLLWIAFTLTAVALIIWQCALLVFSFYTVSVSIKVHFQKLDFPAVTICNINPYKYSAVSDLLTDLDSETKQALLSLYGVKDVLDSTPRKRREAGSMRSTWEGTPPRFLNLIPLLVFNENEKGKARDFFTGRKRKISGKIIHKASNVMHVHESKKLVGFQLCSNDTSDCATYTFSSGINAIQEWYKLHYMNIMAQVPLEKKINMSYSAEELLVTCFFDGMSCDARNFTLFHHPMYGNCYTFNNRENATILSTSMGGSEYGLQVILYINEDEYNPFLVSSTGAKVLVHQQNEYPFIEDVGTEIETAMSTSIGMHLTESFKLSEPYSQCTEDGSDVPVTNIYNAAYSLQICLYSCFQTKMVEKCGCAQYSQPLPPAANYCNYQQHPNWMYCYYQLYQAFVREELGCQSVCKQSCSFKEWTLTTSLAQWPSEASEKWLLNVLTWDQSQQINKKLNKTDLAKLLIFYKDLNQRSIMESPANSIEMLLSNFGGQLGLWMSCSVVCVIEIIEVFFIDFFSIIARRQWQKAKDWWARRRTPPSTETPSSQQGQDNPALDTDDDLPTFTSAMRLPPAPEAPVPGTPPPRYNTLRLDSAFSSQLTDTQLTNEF
Put plainly: Ussing chamber: short circuit current (I_sc) in mouse kidney M-1 cells, amiloride-sensitive. It is filed as cell-based. Conditions: compound applied to apical solution, 37° C. How it is done:
Ussing Chamber: Mouse kidney M-1 cells were cultivated in DMEM containing 5% FCS and 5 μM dexamethasone for 10 to 12 days on polyester transwell filters. Filters were inserted into a teflon-coated well-plate which fit into the in-house ussing chamber system. Prior to measurement the medium of M-1 cells was replaced with Caco-2 transport buffer (Invitrogen, Germany). During measurements, the Ussing chamber temperature was kept at 37° C. Short circuit currents (I_sc) were measured in the voltage-clamp mode using an in-house built amplifier (Boehringer Ingelheim, Biberach) with the software package Lab View for data acquisition and analysis. The transepithelial electrical resistance (TEER) was determined by the application of voltage steps of ±5 mV every 5 sec. Compounds were administered at a final concentration of 3 μM or at increasing concentrations (1-3-10 μM) to the apical solution. At the end of each experiment the amiloride sensitive I_SC was measured by adding 3 μM amiloride to the apical compartment. Results are expressed as inhibition in percent of the amiloride effect or as IC50.
The compound `NC(=NC(=O)c1nc(Cl)c(N)nc1N)N[C@@H]1C[N+]2(Cc3ccc(CO)cc3)CCC1CC2` [Example 17] displayed an IC50 of 52 nM.

Consider `NC(=NC(=O)c1nc(Cl)c(N)nc1N)N[C@@H]1C[N+]2(Cc3ccc(C(F)(F)F)cc3)CCC1CC2` [Example 18], for which the midpoint of inhibition, the IC50, lay at 43 nM.

The compound `NC(=NC(=O)c1nc(Cl)c(N)nc1N)N[C@@H]1C[N+]2(Cc3ccc(OCc4ccccc4)cc3)CCC1CC2` [Example 19] came in with an IC50 of 32 nM.

`NC(=NC(=O)c1nc(Cl)c(N)nc1N)N[C@@H]1C[N+]2(Cc3nc4ccccc4s3)CCC1CC2` [Example 20] gave an IC50 of 29 nM.

Regarding `CS(=O)(=O)c1ccc(C[N+]23CCC(CC2)[C@H](NC(N)=NC(=O)c2nc(Cl)c(N)nc2N)C3)cc1` [Example 21], half-maximal inhibition (IC50) was put at 176 nM.

As to `COc1ccccc1C[N+]12CCC(CC1)[C@H](NC(N)=NC(=O)c1nc(Cl)c(N)nc1N)C2` [Example 22], the 50% inhibitory concentration (IC50) came to 92 nM.

`CC#CC[N+]12CCC(CC1)[C@H](NC(N)=NC(=O)c1nc(Cl)c(N)nc1N)C2` [Example 23] showed a half-maximal inhibitory concentration (IC50) of 172 nM.

`CCNC(=O)C[N+]12CCC(CC1)[C@H](NC(N)=NC(=O)c1nc(Cl)c(N)nc1N)C2` [Example 24]: 56 nM corresponded to half-maximal inhibition (IC50). This IC50 lies about 3.1-fold lower than the previous one.

In turn, `NC(=O)c1ccc(C[N+]23CCC(CC2)[C@H](NC(N)=NC(=O)c2nc(Cl)c(N)nc2N)C3)cc1` [Example 25] registered a 50% inhibitory concentration (IC50) of 693 nM. This IC50 is about 12-fold higher than that of the compound before.

`NC(=NC(=O)c1nc(Cl)c(N)nc1N)N[C@@H]1C[N+]2(Cc3ccc(F)c(Cl)c3)CCC1CC2` [Example 26] registered a half-maximal inhibitory concentration (IC50) of 13 nM. Against the preceding compound, the IC50 is about 53-fold lower.

Take `NC(=NC(=O)c1nc(Cl)c(N)nc1N)N[C@@H]1C[N+]2(Cc3cccc(Cl)c3)CCC1CC2` [Example 27]: the 50% inhibitory concentration (IC50) stood at 12 nM.

With `COc1cc(C[N+]23CCC(CC2)[C@H](NC(N)=NC(=O)c2nc(Cl)c(N)nc2N)C3)cc(OC)c1` [Example 28], the IC50 is 80 nM.

For `NC(=NC(=O)c1nc(Cl)c(N)nc1N)N[C@@H]1C[N+]2(Cc3ccc(Cl)s3)CCC1CC2` [Example 29], the midpoint of inhibition, the IC50, lay at 29 nM. Compared with the last compound, the IC50 is about 2.8-fold lower.

For the compound `CCN(CC)C(=O)C[N+]12CCC(CC1)[C@H](NC(N)=NC(=O)c1nc(Cl)c(N)nc1N)C2` [Example 30], half-maximal inhibition (IC50) was put at 35 nM.

Compound `Cc1nc(C[N+]23CCC(CC2)[C@H](NC(N)=NC(=O)c2nc(Cl)c(N)nc2N)C3)cs1` [Example 31] came in with an IC50 of 54 nM.

`N#Cc1ccc(C[N+]23CCC(CC2)[C@H](NC(N)=NC(=O)c2nc(Cl)c(N)nc2N)C3)cc1` [Example 32]: half-maximal inhibition (IC50) required 202 nM.

Take `N#Cc1cccc(C[N+]23CCC(CC2)[C@H](NC(N)=NC(=O)c2nc(Cl)c(N)nc2N)C3)c1` [Example 33]: 38 nM corresponded to half-maximal inhibition (IC50).

As to `NC(=NC(=O)c1nc(Cl)c(N)nc1N)N[C@@H]1C[N+]2(CC(=O)NCc3ccccc3)CCC1CC2` [Example 34], it took 7 nM to reach half-maximal inhibition (IC50).

On to `NC(=NC(=O)c1nc(Cl)c(N)nc1N)N[C@@H]1C[N+]2(Cc3cscn3)CCC1CC2` [Example 35], for which the 50% inhibitory concentration (IC50) came to 150 nM.

As for `NC(=NC(=O)c1nc(Cl)c(N)nc1N)N[C@@H]1C[N+]2(Cc3cc(F)cc(F)c3)CCC1CC2` [Example 36], the midpoint of inhibition, the IC50, lay at 30 nM.

Take `COc1cccc(C[N+]23CCC(CC2)[C@H](NC(N)=NC(=O)c2nc(Cl)c(N)nc2N)C3)c1OC` [Example 37]: the IC50 worked out at 34 nM. The IC50 values of the last two compounds are within 1.5-fold of each other.

The compound `NC(=NC(=O)c1nc(Cl)c(N)nc1N)N[C@@H]1C[N+]2(Cc3ccc(F)c(F)c3)CCC1CC2` [Example 38] registered an IC50 of 23 nM.

On to `NC(=NC(=O)c1nc(Cl)c(N)nc1N)N[C@@H]1C[N+]2(CC(=O)OCc3ccccc3)CCC1CC2` [Example 39], for which the IC50 worked out at 23 nM.

In the case of `NC(=NC(=O)c1nc(Cl)c(N)nc1N)N[C@@H]1C[N+]2(Cc3ccc(CC(=O)O)cc3)CCC1CC2` [Example 40], the concentration for half-maximal inhibition (IC50) came to 625 nM.

On to `NC(=NC(=O)c1nc(Cl)c(N)nc1N)N[C@@H]1C[N+]2(CC(=O)c3ccccc3)CCC1CC2` [Example 41], for which the IC50 was 63 nM.

`CCOC(=O)C[N+]12CCC(CC1)[C@H](NC(N)=NC(=O)c1nc(Cl)c(N)nc1N)C2` [Example 42]: the IC50 was determined as 191 nM.

Turning to `NC(=NC(=O)c1nc(Cl)c(N)nc1N)N[C@@H]1C[N+]2(CC(=O)NCc3ccc(Cl)cc3)CCC1CC2` [Example 44], the IC50 stood at 2 nM.

For the compound `NC(=NC(=O)c1nc(Cl)c(N)nc1N)N[C@@H]1C[N+]2(Cc3ccncc3)CCC1CC2` [Example 45], the half-maximal inhibitory concentration (IC50) was determined as 279 nM. Against the preceding compound, the IC50 is about 140-fold higher.

The compound `CC(C)(C)OC(=O)c1ccc(C[N+]23CCC(CC2)[C@H](NC(N)=NC(=O)c2nc(Cl)c(N)nc2N)C3)cc1` [Example 46] returned an IC50 of 267 nM.

`NC(=NC(=O)c1nc(Cl)c(N)nc1N)N[C@@H]1C[N+]2(Cc3nnsc3Cl)CCC1CC2` [Example 47]: inhibition was half-maximal at 226 nM (IC50).

Consider `NC(=NC(=O)c1nc(Cl)c(N)nc1N)N[C@@H]1C[N+]2(Cc3ccc(SC(F)(F)F)cc3)CCC1CC2` [Example 48], for which it took 23 nM to reach half-maximal inhibition (IC50).

In turn, `CC(C)NC(=O)C[N+]12CCC(CC1)[C@H](NC(N)=NC(=O)c1nc(Cl)c(N)nc1N)C2` [Example 49] yielded an IC50 of 29 nM.

Compound `NC(=NC(=O)c1nc(Cl)c(N)nc1N)N[C@@H]1C[N+]2(Cc3cccnc3)CCC1CC2` [Example 50] yielded a 50% inhibitory concentration (IC50) of 104 nM.

Consider `NC(=NC(=O)c1nc(Cl)c(N)nc1N)N[C@@H]1C[N+]2(Cc3ccc(OC(F)(F)F)cc3)CCC1CC2` [Example 51], for which the IC50 amounted to 89 nM. The IC50 values of the last two compounds are within 1.5-fold of each other.

Compound `CSc1ccc(C[N+]23CCC(CC2)[C@H](NC(N)=NC(=O)c2nc(Cl)c(N)nc2N)C3)cc1` [Example 52] displayed an IC50 of 67 nM.

Compound `NC(=NC(=O)c1nc(Cl)c(N)nc1N)N[C@@H]1C[N+]2(CC3CCCCC3)CCC1CC2` [Example 53] registered a half-maximal inhibitory concentration (IC50) of 70 nM.

For `NC(=NC(=O)c1nc(Cl)c(N)nc1N)N[C@@H]1C[N+]2(Cc3ccccc3OC(F)(F)F)CCC1CC2` [Example 54], the half-maximal inhibitory concentration (IC50) was 69 nM. The IC50 values of the last two compounds are within 1.5-fold of each other.

Consider `NC(=NC(=O)c1nc(Cl)c(N)nc1N)N[C@@H]1C[N+]2(CC(=O)NCCc3ccccc3)CCC1CC2` [Example 55], for which half-maximal inhibition (IC50) required 1 nM. Compared with the last compound, the IC50 is about 69-fold lower.

The compound `CSc1cccc(C[N+]23CCC(CC2)[C@H](NC(N)=NC(=O)c2nc(Cl)c(N)nc2N)C3)c1` [Example 56] had an IC50 of 12 nM.

For the compound `NC(=NC(=O)c1nc(Cl)c(N)nc1N)N[C@@H]1C[N+]2(CC(=O)N3CCOCC3)CCC1CC2` [Example 57], 71 nM corresponded to half-maximal inhibition (IC50).

In turn, `NC(=NC(=O)c1nc(Cl)c(N)nc1N)N[C@@H]1C[N+]2(CC(=O)Nc3ccccc3)CCC1CC2` [Example 58] came in with an IC50 of 25 nM.

By IC50 is commonly meant the midpoint of a concentration-inhibition curve. Read a high IC50 as weaker potency in that assay.
